Results reported in patent US10934277B2, “Enantiomerically purified GPER agonist for use in treating disease states and conditions” (Linnaeus Therapeutics, Inc., priority 2018, dated 2021).
In brackets after ≈: the same amount, converted by molar mass. Several values for one entry are separate records, joined by “and”; a condition that tells them apart may be missing. Identical values can stand only once.

Tests used:
OCT2 = target: T1, OCT2 (Homo sapiens, UniProt O15244); assay: Drug transporter fluorometric inhibition, OCT2; format: in vitro ADME
T1 sequence (O15244 1-555): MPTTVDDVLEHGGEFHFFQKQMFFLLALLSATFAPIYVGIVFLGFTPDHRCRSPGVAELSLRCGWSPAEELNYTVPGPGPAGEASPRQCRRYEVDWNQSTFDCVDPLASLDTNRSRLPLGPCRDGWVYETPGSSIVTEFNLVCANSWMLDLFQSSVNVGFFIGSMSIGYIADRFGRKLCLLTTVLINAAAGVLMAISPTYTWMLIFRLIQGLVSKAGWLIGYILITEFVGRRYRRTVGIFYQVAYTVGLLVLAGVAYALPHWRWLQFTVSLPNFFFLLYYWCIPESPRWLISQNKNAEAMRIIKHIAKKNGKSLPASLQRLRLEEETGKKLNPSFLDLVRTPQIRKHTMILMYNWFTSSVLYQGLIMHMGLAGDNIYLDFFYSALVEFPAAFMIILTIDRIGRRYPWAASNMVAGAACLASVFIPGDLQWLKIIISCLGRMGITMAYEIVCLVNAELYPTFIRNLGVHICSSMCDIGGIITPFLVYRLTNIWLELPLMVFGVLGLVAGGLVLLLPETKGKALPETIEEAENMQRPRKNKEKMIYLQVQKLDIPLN
Description: Drug transporter (fluorometric inhibition)
The percent of control was calculated using the following equation. The percent of inhibition was calculated by subtracting the percent of control from 100. The IC50 value (concentration causing a half-maximal inhibition of the control value) was determined by non-linear regression analysis of the concentration-response curve using the Hill equation.
Compound is the individual reading in the presence of the test compound. T1 is the mean reading in the absence of the test compound. Background (for P-gp and BCRP) is the mean reading in the presence of the highest effective concentration of the reference inhibitor. Background (for OATP1B1, OATP1B3, OAT1, OAT3, and OCT2) is the mean reading in the absence of both the test compound and the substrate.

ADRA2A = target: T2, ADRA2A (Homo sapiens, UniProt P08913); assay: Off target selectivity assay, ADRA2A; format: cell-based; settings: dose response, concentrations up to 10 μM; read-out: IC50 or EC50 on ADRA2A
T2 sequence (P08913 1-465): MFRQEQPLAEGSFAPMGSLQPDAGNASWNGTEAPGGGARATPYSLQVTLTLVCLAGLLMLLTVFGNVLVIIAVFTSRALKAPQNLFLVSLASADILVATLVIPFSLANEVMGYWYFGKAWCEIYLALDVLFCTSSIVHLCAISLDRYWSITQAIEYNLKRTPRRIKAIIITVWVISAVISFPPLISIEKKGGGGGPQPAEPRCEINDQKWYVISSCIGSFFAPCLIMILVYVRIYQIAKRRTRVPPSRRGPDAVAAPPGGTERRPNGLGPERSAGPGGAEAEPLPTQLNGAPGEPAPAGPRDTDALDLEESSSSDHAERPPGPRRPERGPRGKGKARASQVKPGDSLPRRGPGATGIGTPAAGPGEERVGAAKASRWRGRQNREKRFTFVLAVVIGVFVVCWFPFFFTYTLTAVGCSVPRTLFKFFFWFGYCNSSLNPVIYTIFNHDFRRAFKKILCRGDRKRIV
Description: (§1) Final assay vehicle concentration was 1%.
(§2) For Gi coupled GPCRs, EC80 forskolin was included.
(§3) DMSO concentration for all readouts is ≤0.2%.
(§4) Probenicid was prepared fresh. Cells were loaded with dye prior to testing.

HTR1A = target: T3, HTR1A (Homo sapiens, UniProt P08908); assay: Off target selectivity assay, HTR1A; format: cell-based; settings: dose response, concentrations up to 10 μM; read-out: IC50 or EC50 on HTR1A
T3 sequence (P08908 1-422): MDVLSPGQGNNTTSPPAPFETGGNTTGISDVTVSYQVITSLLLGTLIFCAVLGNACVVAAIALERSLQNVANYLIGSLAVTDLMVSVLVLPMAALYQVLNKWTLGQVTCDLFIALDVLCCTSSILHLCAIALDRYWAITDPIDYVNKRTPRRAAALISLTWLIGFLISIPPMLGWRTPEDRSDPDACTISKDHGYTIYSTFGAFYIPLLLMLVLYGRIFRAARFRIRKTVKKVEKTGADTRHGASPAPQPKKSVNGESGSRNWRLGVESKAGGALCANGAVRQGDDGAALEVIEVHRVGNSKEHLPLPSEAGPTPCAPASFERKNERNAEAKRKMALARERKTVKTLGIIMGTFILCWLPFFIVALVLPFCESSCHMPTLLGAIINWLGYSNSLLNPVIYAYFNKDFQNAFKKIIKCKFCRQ
Description: as §1, §2, §3, §4

[1] = Solubility measurement in pH buffers; format: physicochemical
[2] = Kinetic solubility measurement in bio-relevant media; format: physicochemical; settings: FeSSIF
pKa titration test = format: physicochemical; settings: range of 3-11
[3] = LogD7.4 by shake-flask method (pH 7.4 phosphate buffer / n-octanol); format: physicochemical; settings: for Concentration in pH buffer 7.4: aqueous phase
Description: Log D7.4 was measured with the solvent systems of pH 7.4 phosphate buffer and n-octanol by shake-flask method.

OPRD1 = OPRD1 (Homo sapiens, UniProt P41143); assay: Off target selectivity assay, OPRD1; format: cell-based; settings: dose response, concentrations up to 10 μM; read-out: IC50 or EC50 on OPRD1
Description: as §1, §2, §3, §4

OPRM1 = OPRM1 (Homo sapiens, UniProt P35372); assay: Off target selectivity assay, OPRM1; format: cell-based; settings: dose response, concentrations up to 10 μM; read-out: IC50 or EC50 on OPRM1
Description: as §1, §2, §3, §4

[4] = shake-flask, single samples #1-3

Chain of OPRD1 (P41143 whole entry): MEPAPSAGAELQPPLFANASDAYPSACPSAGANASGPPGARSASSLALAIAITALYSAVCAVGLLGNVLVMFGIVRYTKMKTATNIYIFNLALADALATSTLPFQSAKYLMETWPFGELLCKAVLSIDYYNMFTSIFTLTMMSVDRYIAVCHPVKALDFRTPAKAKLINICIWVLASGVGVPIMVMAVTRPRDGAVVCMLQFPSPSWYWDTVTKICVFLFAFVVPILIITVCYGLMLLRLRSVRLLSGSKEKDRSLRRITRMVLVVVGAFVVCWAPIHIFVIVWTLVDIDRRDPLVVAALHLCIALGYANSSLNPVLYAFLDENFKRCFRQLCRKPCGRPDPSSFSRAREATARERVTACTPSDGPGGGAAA
Chain of OPRM1 (P35372 whole entry): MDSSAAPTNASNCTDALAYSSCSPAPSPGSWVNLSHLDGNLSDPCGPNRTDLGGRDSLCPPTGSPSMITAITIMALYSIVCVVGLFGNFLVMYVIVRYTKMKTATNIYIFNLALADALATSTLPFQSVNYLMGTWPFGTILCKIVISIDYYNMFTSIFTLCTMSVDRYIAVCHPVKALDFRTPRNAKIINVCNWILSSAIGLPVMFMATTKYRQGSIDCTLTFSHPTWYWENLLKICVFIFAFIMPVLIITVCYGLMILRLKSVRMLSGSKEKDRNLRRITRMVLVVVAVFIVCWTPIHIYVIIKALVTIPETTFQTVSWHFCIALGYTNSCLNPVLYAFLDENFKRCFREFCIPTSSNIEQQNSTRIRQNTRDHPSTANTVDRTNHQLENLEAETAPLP

inhibition at 10 µM (OCT2) [%]	IC50 (ADRA2A) [nM]	IC50 (HTR1A) [nM]	solubility at 24 h ([1]; pH 2, aqueous buffer, thermodynamic from solid, all pH buffers 2.0 to 8.0, 37° C., 24 hrs, read-out: solubility at pH 2.0-8.0) [µg/mL]	form change in all the pH buffers ([1]; pH 2.0 to 8.0, after 24 hrs)	form change in the three bio-relevant media ([2]; SGF, FaSSIF, after 1, 2, 4 and 24 hrs)	solubility ([2]; pH 5, thermodynamic from solid, 37° C., read-out: highest solubility, observed in FeSSIF) [µg/mL]	pKa by titration (pKa titration test)	LogP* ([3]; LogP = LogD(pH) + Log [1 + 10^(pKa −pH)])	logP ([3]; n-octanol / pH 7.4 phosphate buffer, pH 7.4, LogP = LogD(pH) + Log [1 + 10^(pKa −pH)])	logD ([3]; n-octanol / pH 7.4 phosphate buffer, shake-flask, pH 7.4 phosphate buffer and n-octanol)	Concentration in pH buffer 7.4 [3, 4] [μg/mL]	Concentration in pH buffer 7.4 ([3]; shake-flask, single samples #1-3, listed as SRR G-1 freebase) [μg/mL]	Average of LogD7.4 ([3]; shake-flask, pH 7.4 phosphate buffer and n-octanol)	Concentration in n-octanol [3, 4]	LogD7.4 [3, 4]	IC50 (OPRD1) [nM]	IC50 (OPRM1) [nM]	SMILES
53.2	2070	2100	–	–	–	–	–	–	–	–	–	–	–	–	–	–	–	CC(=O)c1ccc2c(c1)[C@H]1C=CC[C@H]1[C@@H](c1cc3c(cc1Br)OCO3)N2 [RSS G-1, 1-((3aR,4S,9bS)-4-(6-bromobenzo[d][1,3]dioxol-5-yl)-3a,4,5,9b-tetrahydro-3H-cyclopenta[c]quinolin-8-yl)ethan-1-one]
–	–	–	< 0.72	No form change was observed	No form change was observed	~37 (≈ 89.7 µM)	no pKa value was observed	>3.22	> 3.22	> 3.22	<0.82	< 0.82	> 3.22	1370 µg/mL and 1340 µg/mL	>3.22 and >3.21	870	6680	CC(=O)c1ccc2c(c1)[C@@H]1C=CC[C@@H]1[C@H](c1cc3c(cc1Br)OCO3)N2 (single isomer, unassigned) [SRR G-1]
